Test results: ChEMBL document CHEMBL4229496, “Discovery of small molecule inhibitors of adenovirus by disrupting E3-19K/HLA-A2 interactions” (Bioorg Med Chem Lett, 2018)
Structures can show the parent of a compound that is named as a salt.

Target: HLA class I histocompatibility antigen, A alpha chain (Homo sapiens, UniProt P04439, D140Y/D185E/D98H/E176V/E277Q/G131W/G231S/I119V/I121R/I166T/I218V/L300P/L318F/N151K/N90K/P208A/P217A/Q86G/Q94H/R138H/R169H/T345S)
Experiment: Binding affinity to human biotinylated HLA-A2 by surface plasmon resonance assay

SMILES | Kd [µM]
O=C(CCCN1CCC(O)(c2ccc(Cl)cc2)CC1)c1ccc(F)cc1 [HALOPERIDOL] | < 10
COc1ccc(CCN2CCC(Nc3nc4ccccc4n3Cc3ccc(F)cc3)CC2)cc1 [ASTEMIZOLE] | 2.5 to 75
O=C(c1ccc(OCCN2CCCCC2)cc1)c1c(-c2ccc(O)cc2)sc2cc(O)ccc12 [RALOXIFENE HYDROCHLORIDE] | 22
O=c1n(CCCN2CCN(c3cccc(Cl)c3)CC2)nc2ccccn12 [TRAZODONE HYDROCHLORIDE] | 2.5
COc1cc2nc(N3CCN(C(=O)C4COc5ccccc5O4)CC3)nc(N)c2cc1OC (stereo unspecified) [DOXAZOSIN MESYLATE] | 15.7
O=C(CCCN1CCC2(CC1)C(=O)NCN2c1ccccc1)c1ccc(F)cc1 [SPIPERONE] | 2.5 to 75
